# Measurements reported in ChEMBL document CHEMBL4340553 (Bioorg Med Chem, 2019).
# Experiments:
# NCI-H460 = test: Cytotoxicity in human NCI-H460 cells assessed as reduction in cell viability incubated for 72 hrs by MTT assay; settings: NCI-H460, 72 h
# MKN-45 = test: Cytotoxicity in human MKN45 cells assessed as reduction in cell viability incubated for 72 hrs by MTT assay; settings: MKN-45, 72 h
# MDA-MB-231 = test: Cytotoxicity in human MDA-MB-231 cells assessed as reduction in cell viability incubated for 72 hrs by MTT assay; settings: MDA-MB-231, 72 h
# HT-29 = test: Cytotoxicity in human HT-29 cells assessed as reduction in cell viability incubated for 72 hrs by MTT assay; settings: HT-29, 72 h
# [1] = target: Epidermal growth factor receptor (Homo sapiens, UniProt P00533); test: Inhibition of EGFR (unknown origin) using poly (Glu, Tyr) 4:1 substrate incubated for 30 mins by HTRF assay
# Epidermal growth factor receptor, sequence (P00533 whole entry): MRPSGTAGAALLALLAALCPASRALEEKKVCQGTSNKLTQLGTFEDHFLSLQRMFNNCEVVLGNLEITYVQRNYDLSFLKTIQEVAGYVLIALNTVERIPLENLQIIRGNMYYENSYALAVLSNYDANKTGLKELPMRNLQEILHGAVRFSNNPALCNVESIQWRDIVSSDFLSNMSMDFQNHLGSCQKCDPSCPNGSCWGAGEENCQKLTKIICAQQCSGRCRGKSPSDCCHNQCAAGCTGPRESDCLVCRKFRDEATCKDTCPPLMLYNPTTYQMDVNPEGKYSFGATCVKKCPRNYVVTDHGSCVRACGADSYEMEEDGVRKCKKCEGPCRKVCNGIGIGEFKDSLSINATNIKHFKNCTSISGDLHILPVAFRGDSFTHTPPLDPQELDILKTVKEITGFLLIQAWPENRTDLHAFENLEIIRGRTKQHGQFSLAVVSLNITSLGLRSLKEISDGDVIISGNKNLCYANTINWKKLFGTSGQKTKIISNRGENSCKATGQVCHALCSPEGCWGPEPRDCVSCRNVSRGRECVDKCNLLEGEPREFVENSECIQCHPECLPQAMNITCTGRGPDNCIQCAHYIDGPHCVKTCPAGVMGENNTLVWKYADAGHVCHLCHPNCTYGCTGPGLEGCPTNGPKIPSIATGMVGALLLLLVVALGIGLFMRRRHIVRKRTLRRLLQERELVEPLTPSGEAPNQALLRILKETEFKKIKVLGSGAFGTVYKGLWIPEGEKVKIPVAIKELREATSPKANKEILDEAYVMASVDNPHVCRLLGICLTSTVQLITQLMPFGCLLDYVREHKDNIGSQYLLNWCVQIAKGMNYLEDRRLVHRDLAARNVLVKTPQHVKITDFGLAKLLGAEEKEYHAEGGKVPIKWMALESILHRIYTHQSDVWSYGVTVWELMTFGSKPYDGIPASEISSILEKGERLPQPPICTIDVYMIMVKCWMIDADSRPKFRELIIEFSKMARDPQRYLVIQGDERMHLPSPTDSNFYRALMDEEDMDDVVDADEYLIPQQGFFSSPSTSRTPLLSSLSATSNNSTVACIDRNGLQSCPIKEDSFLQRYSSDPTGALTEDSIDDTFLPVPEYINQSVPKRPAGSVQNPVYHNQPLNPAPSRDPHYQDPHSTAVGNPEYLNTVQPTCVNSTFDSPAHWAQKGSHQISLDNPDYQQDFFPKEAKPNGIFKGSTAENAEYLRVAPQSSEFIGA
# [2] = target: Vascular endothelial growth factor receptor 1 (Homo sapiens, UniProt P17948); test: Inhibition of FLT1 (unknown origin) using poly (Glu, Tyr) 4:1 substrate incubated for 30 mins by HTRF assay
# [3] = target: Platelet-derived growth factor receptor alpha (Homo sapiens, UniProt P16234); test: Inhibition of PDGFRalpha (unknown origin) using poly (Glu, Tyr) 4:1 substrate incubated for 30 mins by HTRF assay
# Platelet-derived growth factor receptor alpha, sequence (P16234 whole entry): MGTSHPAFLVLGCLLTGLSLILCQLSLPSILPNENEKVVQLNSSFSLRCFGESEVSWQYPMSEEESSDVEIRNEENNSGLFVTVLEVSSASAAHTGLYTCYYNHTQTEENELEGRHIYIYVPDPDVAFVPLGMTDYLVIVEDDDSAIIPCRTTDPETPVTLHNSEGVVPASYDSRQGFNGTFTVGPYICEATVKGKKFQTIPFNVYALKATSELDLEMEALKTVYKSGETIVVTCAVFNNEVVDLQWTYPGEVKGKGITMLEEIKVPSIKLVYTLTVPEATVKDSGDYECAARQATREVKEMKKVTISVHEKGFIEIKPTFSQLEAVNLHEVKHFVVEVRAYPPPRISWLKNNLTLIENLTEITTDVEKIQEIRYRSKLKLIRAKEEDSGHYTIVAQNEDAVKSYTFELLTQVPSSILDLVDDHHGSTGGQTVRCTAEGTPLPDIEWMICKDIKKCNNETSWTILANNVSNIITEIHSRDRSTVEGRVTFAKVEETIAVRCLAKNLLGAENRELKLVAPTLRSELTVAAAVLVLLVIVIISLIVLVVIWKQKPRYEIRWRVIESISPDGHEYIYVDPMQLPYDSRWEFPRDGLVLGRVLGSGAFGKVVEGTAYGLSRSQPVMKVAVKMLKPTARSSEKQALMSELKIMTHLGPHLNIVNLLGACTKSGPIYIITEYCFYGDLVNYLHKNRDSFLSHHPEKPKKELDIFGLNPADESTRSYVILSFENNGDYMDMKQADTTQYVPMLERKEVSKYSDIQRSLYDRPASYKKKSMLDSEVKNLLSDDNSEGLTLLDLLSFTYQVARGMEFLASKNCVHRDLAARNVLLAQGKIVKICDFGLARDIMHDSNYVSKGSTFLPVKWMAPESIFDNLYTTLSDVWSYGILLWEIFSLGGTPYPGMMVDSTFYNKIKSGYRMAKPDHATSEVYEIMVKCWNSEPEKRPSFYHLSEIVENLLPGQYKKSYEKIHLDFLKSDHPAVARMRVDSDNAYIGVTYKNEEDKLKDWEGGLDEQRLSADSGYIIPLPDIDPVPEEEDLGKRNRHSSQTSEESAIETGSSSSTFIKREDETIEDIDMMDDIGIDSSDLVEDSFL
# [4] = target: Hepatocyte growth factor receptor (Homo sapiens, UniProt P08581); test: Inhibition of c-Met (unknown origin) using poly (Glu, Tyr) 4:1 substrate incubated for 30 mins by HTRF assay
# [5] = target: Platelet-derived growth factor receptor beta (Homo sapiens, UniProt P09619); test: Inhibition of PDGFRbeta (unknown origin) using poly (Glu, Tyr) 4:1 substrate incubated for 30 mins by HTRF assay
# Platelet-derived growth factor receptor beta, sequence (P09619 whole entry): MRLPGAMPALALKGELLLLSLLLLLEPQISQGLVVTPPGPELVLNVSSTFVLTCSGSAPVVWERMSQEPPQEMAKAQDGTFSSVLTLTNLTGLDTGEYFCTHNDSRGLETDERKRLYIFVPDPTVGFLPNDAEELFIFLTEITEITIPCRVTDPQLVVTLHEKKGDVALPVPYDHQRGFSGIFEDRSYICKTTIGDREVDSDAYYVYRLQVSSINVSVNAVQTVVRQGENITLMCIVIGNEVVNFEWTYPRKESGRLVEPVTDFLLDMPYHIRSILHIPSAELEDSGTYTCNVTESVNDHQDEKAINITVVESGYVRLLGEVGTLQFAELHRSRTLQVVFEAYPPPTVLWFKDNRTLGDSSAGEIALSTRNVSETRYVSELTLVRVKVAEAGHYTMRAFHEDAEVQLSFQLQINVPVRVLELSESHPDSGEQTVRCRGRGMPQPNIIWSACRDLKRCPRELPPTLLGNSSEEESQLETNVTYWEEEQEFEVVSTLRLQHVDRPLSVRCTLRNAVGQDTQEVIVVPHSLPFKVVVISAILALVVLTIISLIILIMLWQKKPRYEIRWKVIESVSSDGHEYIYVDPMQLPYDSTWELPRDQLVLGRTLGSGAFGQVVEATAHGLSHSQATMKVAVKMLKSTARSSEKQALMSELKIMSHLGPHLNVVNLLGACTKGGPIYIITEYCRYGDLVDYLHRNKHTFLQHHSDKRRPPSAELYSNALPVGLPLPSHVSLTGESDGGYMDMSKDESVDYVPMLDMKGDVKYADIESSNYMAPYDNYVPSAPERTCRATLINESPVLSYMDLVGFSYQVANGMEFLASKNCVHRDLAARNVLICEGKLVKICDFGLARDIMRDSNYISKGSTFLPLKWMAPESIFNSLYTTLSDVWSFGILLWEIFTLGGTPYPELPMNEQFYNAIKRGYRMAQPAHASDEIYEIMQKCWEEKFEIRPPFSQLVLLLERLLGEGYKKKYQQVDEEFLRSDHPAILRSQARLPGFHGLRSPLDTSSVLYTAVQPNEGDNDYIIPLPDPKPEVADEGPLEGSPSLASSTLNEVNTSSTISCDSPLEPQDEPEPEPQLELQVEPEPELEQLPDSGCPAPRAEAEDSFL
# [6] = target: ALK tyrosine kinase receptor (Homo sapiens, UniProt Q9UM73); test: Inhibition of ALK (unknown origin) using poly (Glu, Tyr) 4:1 substrate incubated for 30 mins by HTRF assay
# ALK tyrosine kinase receptor, sequence (Q9UM73 whole entry): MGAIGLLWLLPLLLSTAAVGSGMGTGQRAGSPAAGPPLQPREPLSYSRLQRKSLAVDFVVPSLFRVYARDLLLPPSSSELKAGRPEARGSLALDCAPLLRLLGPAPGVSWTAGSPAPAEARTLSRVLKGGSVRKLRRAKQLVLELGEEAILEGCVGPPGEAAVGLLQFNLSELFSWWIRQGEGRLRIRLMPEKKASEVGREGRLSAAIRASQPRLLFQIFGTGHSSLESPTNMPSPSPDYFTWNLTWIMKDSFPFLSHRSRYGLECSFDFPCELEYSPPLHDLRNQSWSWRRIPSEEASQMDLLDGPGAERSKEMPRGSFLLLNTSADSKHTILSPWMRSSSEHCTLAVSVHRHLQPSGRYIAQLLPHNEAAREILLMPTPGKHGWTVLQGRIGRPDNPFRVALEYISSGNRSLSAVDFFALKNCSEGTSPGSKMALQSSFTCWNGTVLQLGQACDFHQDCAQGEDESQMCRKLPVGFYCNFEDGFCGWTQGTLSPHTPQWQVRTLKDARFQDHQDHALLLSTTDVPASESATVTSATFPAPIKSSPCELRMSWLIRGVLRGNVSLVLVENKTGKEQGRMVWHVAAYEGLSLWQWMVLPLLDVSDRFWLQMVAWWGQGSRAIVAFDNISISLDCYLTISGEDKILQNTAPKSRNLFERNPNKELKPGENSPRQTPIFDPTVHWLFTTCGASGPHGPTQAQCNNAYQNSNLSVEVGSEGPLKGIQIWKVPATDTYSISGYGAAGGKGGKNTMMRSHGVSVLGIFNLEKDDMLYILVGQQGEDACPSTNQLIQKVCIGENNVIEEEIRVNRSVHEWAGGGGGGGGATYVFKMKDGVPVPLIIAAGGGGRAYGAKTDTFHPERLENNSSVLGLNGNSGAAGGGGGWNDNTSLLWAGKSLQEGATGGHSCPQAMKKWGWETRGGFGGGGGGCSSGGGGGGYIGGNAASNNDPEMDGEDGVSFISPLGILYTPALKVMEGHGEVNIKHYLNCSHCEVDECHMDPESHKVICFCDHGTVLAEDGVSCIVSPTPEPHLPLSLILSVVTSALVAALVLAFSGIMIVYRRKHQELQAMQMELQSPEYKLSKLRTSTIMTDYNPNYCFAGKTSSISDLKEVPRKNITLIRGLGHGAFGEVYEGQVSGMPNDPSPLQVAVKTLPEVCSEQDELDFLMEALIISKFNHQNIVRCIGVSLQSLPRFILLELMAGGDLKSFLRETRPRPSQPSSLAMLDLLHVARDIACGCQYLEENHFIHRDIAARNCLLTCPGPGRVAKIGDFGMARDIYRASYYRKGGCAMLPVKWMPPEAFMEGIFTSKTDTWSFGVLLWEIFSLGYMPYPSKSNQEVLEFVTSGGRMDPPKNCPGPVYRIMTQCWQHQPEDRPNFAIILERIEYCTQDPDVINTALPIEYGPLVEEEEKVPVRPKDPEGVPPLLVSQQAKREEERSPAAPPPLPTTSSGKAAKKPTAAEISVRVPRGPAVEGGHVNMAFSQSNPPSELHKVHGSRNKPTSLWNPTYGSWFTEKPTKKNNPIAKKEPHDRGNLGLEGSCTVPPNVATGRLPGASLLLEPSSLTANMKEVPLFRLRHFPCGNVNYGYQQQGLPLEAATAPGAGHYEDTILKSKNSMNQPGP
# [7] = Inhibition of VEGFR (unknown origin) using poly (Glu, Tyr) 4:1 substrate incubated for 30 mins by HTRF assay; set-up: species or system Homo sapiens
# [8] = target: Macrophage-stimulating protein receptor (Homo sapiens, UniProt Q04912); test: Inhibition of RON (unknown origin) using poly (Glu, Tyr) 4:1 substrate incubated for 30 mins by HTRF assay
# [9] = target: Vascular endothelial growth factor receptor 2 (Homo sapiens, UniProt P35968); test: Inhibition of KDR (unknown origin) using poly (Glu, Tyr) 4:1 substrate incubated for 30 mins by HTRF assay
# [10] = target: Mast/stem cell growth factor receptor Kit (Homo sapiens, UniProt P10721); test: Inhibition of c-Kit (unknown origin) using poly (Glu, Tyr) 4:1 substrate incubated for 30 mins by HTRF assay
# [11] = target: T1, Receptor-type tyrosine-protein kinase FLT3 (Homo sapiens, UniProt P36888); test: Inhibition of FLT3 (unknown origin) using poly (Glu, Tyr) 4:1 substrate incubated for 30 mins by HTRF assay
# T1 sequence (P36888 whole entry): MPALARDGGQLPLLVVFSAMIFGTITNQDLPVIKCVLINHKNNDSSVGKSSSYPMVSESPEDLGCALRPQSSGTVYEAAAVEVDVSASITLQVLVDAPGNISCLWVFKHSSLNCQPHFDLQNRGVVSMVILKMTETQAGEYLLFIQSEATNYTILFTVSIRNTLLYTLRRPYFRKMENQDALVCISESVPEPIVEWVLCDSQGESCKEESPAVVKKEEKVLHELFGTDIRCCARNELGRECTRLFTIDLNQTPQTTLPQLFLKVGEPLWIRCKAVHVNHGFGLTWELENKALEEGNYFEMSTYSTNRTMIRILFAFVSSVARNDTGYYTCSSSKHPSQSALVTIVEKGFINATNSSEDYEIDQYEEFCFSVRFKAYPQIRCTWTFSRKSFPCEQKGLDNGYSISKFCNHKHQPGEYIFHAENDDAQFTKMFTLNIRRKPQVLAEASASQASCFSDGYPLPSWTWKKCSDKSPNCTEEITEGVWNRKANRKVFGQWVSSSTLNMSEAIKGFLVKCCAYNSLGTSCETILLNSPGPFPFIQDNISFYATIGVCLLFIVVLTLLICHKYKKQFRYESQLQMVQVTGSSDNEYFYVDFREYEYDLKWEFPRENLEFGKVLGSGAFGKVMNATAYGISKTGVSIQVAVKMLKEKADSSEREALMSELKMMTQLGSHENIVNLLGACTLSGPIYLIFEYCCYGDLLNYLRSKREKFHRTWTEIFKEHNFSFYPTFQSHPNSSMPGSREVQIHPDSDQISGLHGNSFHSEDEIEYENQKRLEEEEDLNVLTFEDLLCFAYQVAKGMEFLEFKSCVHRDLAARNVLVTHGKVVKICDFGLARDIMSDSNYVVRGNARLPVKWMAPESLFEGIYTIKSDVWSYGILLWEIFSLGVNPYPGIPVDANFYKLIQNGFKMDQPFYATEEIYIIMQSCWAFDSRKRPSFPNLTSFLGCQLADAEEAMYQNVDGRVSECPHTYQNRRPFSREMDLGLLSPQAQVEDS
SMILES,IC50 (NCI-H460) [nM],IC50 (MKN-45) [nM],IC50 (MDA-MB-231) [nM],IC50 (HT-29) [nM],also measured
COc1cc2c(Oc3ccc(NC(=O)NS(=O)(=O)Cc4ccc(C)cc4)cc3F)ccnc2cc1OCCCN1CCCCC1,920,1130,2540,2170,–
COc1cc2nccc(Oc3ccc(NC(=O)NS(=O)(=O)Cc4ccccc4)cc3F)c2cc1OC,1540,1430,2450,3020,–
COc1cc2nccc(Oc3ccc(NC(=O)NS(=O)(=O)Cc4ccc(Cl)cc4)cc3F)c2cc1OC,1450,1420,3160,2880,–
CCCCOc1cc2nccc(Oc3ccc(NC(=O)NS(=O)(=O)Cc4ccc(F)cc4)cc3F)c2cc1OC,1440,1310,2290,2880,–
COc1cc2nccc(Oc3ccc(NC(=O)NS(=O)(=O)Cc4ccccc4C)cc3F)c2cc1OC,3020,3420,5670,6210,–
COc1cc2nccc(Oc3ccc(NC(=O)NS(=O)(=O)Cc4ccc(C(F)(F)F)cc4)cc3F)c2cc1OC,12200,10300,9460,8150,–
COc1cc2nccc(Oc3ccc(NC(=O)NS(=O)(=O)Cc4ccc(C)cc4)cc3F)c2cc1OC,4770,5380,7620,7150,–
COc1cc2c(Oc3ccc(NC(=O)NS(=O)(=O)Cc4ccc(C)cc4)cc3F)ccnc2cc1OCCCN1CCOCC1,1540,1670,3860,3760,–
COc1cc2c(Oc3ccc(NC(=O)NS(=O)(=O)Cc4ccccc4)cc3F)ccnc2cc1OCCCN1CCCC1,430,610,1210,930,–
COc1cc2nccc(Oc3ccc(NC(=O)NS(=O)(=O)Cc4cccc(C)c4)cc3F)c2cc1OC,3870,4540,6560,6030,–
CCCCOc1cc2nccc(Oc3ccc(NC(=O)NS(=O)(=O)Cc4ccccc4)cc3F)c2cc1OC,1840,1720,2400,3120,–
COc1cc2c(Oc3ccc(NC(=O)NS(=O)(=O)Cc4ccc(F)cc4)cc3F)ccnc2cc1OCCCN1CCCC1,55,64,490,160,IC50 [1]: > 10000 nM; IC50 [2]: 418 nM; IC50 [3]: 242 nM; IC50 [4]: 1.98 nM; IC50 [5]: 356 nM; IC50 [6]: > 10000 nM; IC50 [7]: 689 nM; IC50 [8]: 375 nM; IC50 [9]: 95 nM; IC50 [10]: 380 nM; IC50 [11]: 400 nM
CCCCOc1cc2nccc(Oc3ccc(NC(=O)NS(=O)(=O)Cc4ccc(C)cc4)cc3F)c2cc1OC,5870,6480,8980,9320,–
COc1cc2nccc(Oc3ccc(NC(=O)NS(=O)(=O)Cc4cccc(F)c4)cc3F)c2cc1OC,1790,1630,3530,3060,–
COc1cc2c(Oc3ccc(NC(=O)NS(=O)(=O)Cc4ccc(F)cc4)cc3F)ccnc2cc1OCCCN1CCOCC1,160,120,780,340,–
COc1cc2nccc(Oc3ccc(NC(=O)NS(=O)(=O)Cc4ccc(Cl)cc4Cl)cc3F)c2cc1OC,3540,2240,4560,2970,–
COc1cc2nccc(Oc3ccc(NC(=O)NS(=O)(=O)Cc4ccc(Br)cc4)cc3F)c2cc1OC,1650,1420,2260,3120,–
COc1cc2nccc(Oc3ccc(NC(=O)NS(=O)(=O)Cc4ccccc4)cc3)c2cc1OC,2600,2080,3840,4350,–
COc1cc2nccc(Oc3ccc(NC(=O)NS(=O)(=O)Cc4ccc(F)cc4)cc3)c2cc1OC,1980,1320,2640,3250,–
COc1cc2c(Oc3ccc(NC(=O)NS(=O)(=O)Cc4ccccc4)cc3F)ccnc2cc1OCCCN1CCOCC1,600,330,1080,1280,–
COc1cc2c(Oc3ccc(NC(=O)NS(=O)(=O)Cc4ccc(F)cc4)cc3F)ccnc2cc1OCCCN1CCCCC1,150,230,600,320,–
COc1cc2c(Oc3ccc(NC(=O)NS(=O)(=O)Cc4ccccc4)cc3F)ccnc2cc1OCCCN1CCCCC1,740,650,1940,1230,–
COc1cc2nccc(Oc3ccc(NC(=O)NS(=O)(=O)Cc4ccccc4F)cc3F)c2cc1OC,1880,2020,2950,3120,–
COc1cc2nccc(Oc3ccc(NC(=O)NS(=O)(=O)Cc4ccc(F)cc4)cc3F)c2cc1OC,1040,960,2040,2680,–
COc1cc2c(Oc3ccc(NC(=O)C4(C(=O)Nc5ccc(F)cc5)CC4)cc3F)ccnc2cc1OCCCN1CCOCC1 [FORETINIB],–,–,–,–,IC50 [7]: 4.96 nM
